Experimental data from patent EP0200818A1, “Derivatives of the pluramycin group having anti-tumor activity, process for their preparation and their use as medicaments” (MICROBIAL CHEMISTRY RESEARCH FOUNDATION, priority 1984, dated 1986).

Columns and labels:
L 1210 leukemia cells = assay: Anti-tumor activity: life prolongation of mice transplanted intraperitoneally with L 1210 leukemia cells; format: in vivo, CDF1 mice; details: observed for 30 days, survival of physiological saline control mice = 100
Experimental: A suspension of 1 x 10^5 L 1210 leukemia cells was transplated intraperitoneally in each of the CDF1 mice tested. Thereafter, 5',6'-dehydrokidamycin was injected intraperitoneally for 10 days in predetermined amounts, 10, 5, 2.5, 1.25, 0.625 and 0.3125 mg/kg.

[1] = Acute toxicity (LD50), single intraperitoneal injection; format: in vivo; details: single intraperitoneal injection in mice
Experimental: The LD50 of 5',6'-dehydrokidamycin for a single intraperitoneal injection in mice was 100 mg/kg.

[2] = tested on: cultured leukemia cell L 1210; assay: Cytotoxicity: growth inhibition of cultured leukemia cells; format: cell-based; details: growth of cultured leukemia cell L 1210
Experimental: The growth of cultured leukemia cell L 1210 was inhibited by 0.07 µg/ml (IC50) of 5',6'~dehydrokidamycin.

What does the source list for 5',6'-dehydrokidamycin?
Percent life prolongation (L 1210 leukemia cells; 0.3125 mg/kg/day intraperitoneally for 10 days): 147%; Percent life prolongation (L 1210 leukemia cells; 0.625 mg/kg/day intraperitoneally for 10 days): 133%; Percent life prolongation (L 1210 leukemia cells; 1.25 mg/kg/day intraperitoneally for 10 days): 133%; Percent life prolongation (L 1210 leukemia cells; 2.5 mg/kg/day intraperitoneally for 10 days): 133%; Percent life prolongation (L 1210 leukemia cells; 5 mg/kg/day intraperitoneally for 10 days): 173%; Percent life prolongation (L 1210 leukemia cells; 10 mg/kg/day intraperitoneally for 10 days): 153%; LD50 [1]: 100 mg/kg; IC50 [2]: 0.07 µg/mL
